How the values were obtained:
[1] = tested on: Occludin; experiment: Western blotting of Occludin, cortex of ischemic penumbra; assay type: in vivo, C57BL/6 mice; conditions: brain tissue 24 hours after administration, sham = 1.00; tPA 10 mg/kg alone; T541 20 mg/kg + tPA 10 mg/kg
Protocol: (§1) After reperfused for 24 hours, mice were perfused by normal saline; Western blotting analysis was conducted to the penumbra field of infarcted right cerebral cortex. After perfused, mice brain tissue was taken out; cerebellum and prefrontal lobe were cut off; the brain tissue of right brain close to 1 cm of the central joint of left and right hemispheres along the sagittal view; infarcted penumbra field of the rest tissues was cut off along an 45° angle; the cerebral cortex of the penumbra field was peeled off and preserved at low temperature. Right cerebral cortex was taken and added 1×RIPA lysate and a Cocktail protease inhibitor (1:100, Cell Signaling Technology, US) for full pyrolysis and ultrasonic treatment, and then 17000 g were centrifuged for 30 minutes. Supernatant was taken and added 5×loading buffer by volume, boiled for 20 minutes in boiling water, and then preserved at −80° C. Excessive supernatant was taken out and quantified by a BCA protein quantification liquor (ThermoScientific, US) to measure absorbance value at 560 nm of ELIASA and to calculate the protein concentration according to a standard curve. […] The density of electrophoretic strips was analyzed by an image analysis software Quantityone. […]

[2] = tested on: brain tissue (blood brain barrier leakage); experiment: Evens Blue leakage in brain tissue; assay type: in vivo, C57BL/6 mice; conditions: 24 h after administration; method: microgram Evens Blue per gram brain tissue; tPA 10 mg/kg alone; T541 20 mg/kg + tPA 10 mg/kg
Protocol: Evens Blue leakage: after reperfused for 21 hours, mice were slowly injected an Evens Blue dye (2%, 4 ml/kg) dissolving in normal saline via femoral vein. 3 hours later, mice were perfused 15-20 ml of normal saline till auricula dextra flows colourless liquid, then the brain was immediately separated and immobilized in a 3% paraformaldehyde for 3 hours, then taken out, the brain was cut into 5 slices and shoot; left and right brain was separated and respectively weighed. Left and right brain was respectively added to an EP tube containing 1 ml of 50% trichloroacetic acid, homogenated and centrifuged to obtain the supernatant. An Evens Blue standard was prepared and the content of Evens Blue was detected by a multimode reader (exciting light: 620 nm, emitting light: 680 nm). The content of Evens Blue was denoted by the microgram of Evens Blue in per gram of brain tissue.

[3] = tested on: ZO-1; experiment: Western blotting of ZO-1, cortex of ischemic penumbra; assay type: in vivo, C57BL/6 mice; conditions: brain tissue 24 hours after administration, sham = 1.00; tPA 10 mg/kg alone; T541 20 mg/kg + tPA 10 mg/kg
Protocol: as §1

[4] = tested on: VE-cadherin; experiment: Western blotting of VE-cadherin, endothelial cells after hypoxia/reoxygenation; assay type: cell-based; conditions: rat brain endothelial cells, hypoxia 4.5 h/reoxygenation 3 h; tPA 20 mcg/ml alone (model group); T541 400 mcg/ml + tPA 20 mcg/ml
From the text: Establishment of rat brain endothelial cell H/R model: rat brain endothelial cells were purchased from ATCC, and then subcultured to 5-6 generations in normal conditions for further experiment. […]

[5] = tested on: cerebral cortex microvessels; experiment: Opening number of cerebral cortex microvessels by SEM; assay type: in vivo, C57BL/6 mice; conditions: 24 h after administration; tPA 10 mg/kg alone; T541 20 mg/kg + tPA 10 mg/kg
Protocol: Scanning electron microscope (SEM): after reperfused for 24 hours, anesthetized mice were perfused 3% glutaraldehyde for 40 minutes via ventriculus sinister at a rate of 3 ml/min; the brain was taken, and the right cortical penumbra was cut off and immobilized in glutaraldehyde for 2 hours. After washed by a PBS phosphate buffer, mice were immobilized in 1% osmium tetroxide for 2 hours; a proper section was taken and fixed on a metal support. Tissue blocks were plated gold, observed and shoot by an SEM (JSM-5600LV, JEOL, Tokyo, Japan).
5 500-fold visual fields were randomly selected for each mouse under SEM to count the opening number of cerebral cortex microvessels in right hemisphere penumbra. N=3. (See lines 3 and 4 of FIG. 7)

[6] = tested on: Laminin; experiment: Western blotting of Laminin, basement membrane; assay type: in vivo, C57BL/6 mice; conditions: brain tissue 24 hours after administration, sham = 1.00; tPA 10 mg/kg alone; T541 20 mg/kg + tPA 10 mg/kg
Protocol: as §1

“tPA: tissue-type plasminogen activator (tPA) for thrombolysis” was tested, and the Occludin/β-actin [1] was 0.38 ± 0.02, the “Evens Blue leakage” value [2] was 17.55 ± 1.23 and the ZO-1/β-actin [3] was 0.42 ± 0.05. The VE-cadherin/β-actin [4] was 0.58 ± 0.07, the “Opening number of microvessels” value [5] was 21.07 ± 1.54 and the Laminin content [6] was 0.47 ± 0.06.

Source: patent publication US20210038668A1, “TRADITIONAL CHINESE MEDICINE COMPOSITION FOR PREVENTING AND/OR TREATING ISCHEMIC REPERFUSION INJURY” (TASLY PHARMACEUTICAL GROUP CO., LTD., priority 2018, published 2021)
